According to patent US20230278972A1, “SUBSTITUTED HALOALKYL SULFONANILIDE HERBICIDES” (FMC Corporation, priority 2020, published 2023):

Tests used:
Assay type in all cases: in vivo
[1] = tested on: ragweed (common ragweed, Ambrosia artemisiifolia); assay: Test A1 preemergence, ragweed
How it was run: (§1)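 Plants grown in pots of loam/sand mix; preemergence = soil-directed spray on seeded pots, postemergence = spray at 1–2 leaves, height 2–10 cm; test chemicals formulated in non-phytotoxic solvent with surfactant.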

[2] = tested on: Oat, Wild (wild oat, Avena fatua); assay: Test A1 postemergence, Oat, Wild; conditions: Postemergence
How it was run: (§2)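 Plants were grown in a loam soil/sand blend, with test chemicals formulated in a non-phytotoxic solvent mixture containing surfactant. Preemergence treatment (corn) was a directed soil spray at planting. Postemergence treatment was applied to plants 2 to 10 cm tall at the one- to two-leaf stage.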

[3] = tested on: Pigweed, Palmer (palmer amaranth, palmer pigweed, Amaranthus palmeri); assay: Test A1 postemergence, Pigweed, Palmer; conditions: Postemergence
How it was run: as §2

[4] = tested on: goosegrass (Eleusine indica); assay: Test A1 postemergence, goosegrass; conditions: Postemergence
How it was run: (§3)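 Herbicidal response was scored on plants treated either preemergence, by directed spray onto soil of a loam–sand blend after sowing, or postemergence on potted plants at the one- to two-leaf stage, 2–10 cm high. Test chemicals were carried in a non-phytotoxic solvent mix with surfactant.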

[5] = tested on: goosegrass (Eleusine indica); assay: Test A1 preemergence, goosegrass
How it was run: as §1

[6] = tested on: ragweed (common ragweed, Ambrosia artemisiifolia); assay: Test A1 postemergence, ragweed; conditions: Postemergence
How it was run: as §2

[7] = tested on: blackgrass (Alopecurus myosuroides); assay: Test A1 preemergence, blackgrass
How it was run: as §1

corn (Zea mays) = assay: Test A1 preemergence, corn
How it was run: as §2

[8] = tested on: wheat (Triticum aestivum); assay: Test A1 preemergence, wheat
How it was run: as §1

[9] = tested on: horseweed (Erigeron canadensis); assay: Test A1 postemergence, horseweed; conditions: Postemergence
How it was run: as §3

[10] = 31 g ai/ha, 0 to 100 scale (0 no effect, 100 complete control)
[11] = 125 g ai/ha, 0 to 100 scale, 0 no effect, 100 complete control
[12] = 31 g ai/ha, 0 to 100 scale (0 no effect, 100 complete control), 10 days

| SMILES | Plant response rating, Ragweed [1, 10] | Plant response rating, Ragweed [1, 11] | Plant response rating, Oat, Wild [2, 12] | Plant response rating, Oat, Wild ([2]; 125 g ai/ha, 0 to 100 scale) | Plant response rating, Pigweed, Palmer [3, 12] | Plant response rating, Pigweed, Palmer ([3]; 125 g ai/ha, 0 to 100 scale) | Plant response rating, Goosegrass [4, 12] | Plant response rating, Goosegrass ([4]; 125 g ai/ha, 0 to 100 scale) | Plant response rating, Goosegrass [5, 10] | Plant response rating, Goosegrass [5, 11] | Plant response rating, Ragweed [6, 12] | Plant response rating, Ragweed ([6]; 125 g ai/ha, 0 to 100 scale) | Plant response rating, Blackgrass [7, 10] | Plant response rating, Blackgrass [7, 11] | Plant response rating, Corn (corn (Zea mays); [10]) | Plant response rating, Corn (corn (Zea mays); [11]) | Plant response rating, Wheat [8, 10] | Plant response rating, Wheat [8, 11] | Plant response rating, Horseweed [9, 12] | Plant response rating, Horseweed ([9]; 125 g ai/ha, 0 to 100 scale) |
| --- | --- | --- | --- | --- | --- | --- | --- | --- | --- | --- | --- | --- | --- | --- | --- | --- | --- | --- | --- | --- |
| CCOC(=O)N(c1cc(C(=O)N2CCCCC2)c(C)c(C)c1C)S(=O)(=O)C(F)(F)F [Compound 330, Ethyl N-[(trifluoromethyl)sulfonyl]-N-[2,3,4-trimethyl-5-(1-piperidinylcarbonyl)phenyl]carbamate] | 40 | 70 | 0 | 10 | 0 | 50 | 0 | 40 | 40 | 100 | 50 | 80 | 0 | 30 | 0 | 0 | 0 | 30 | 80 | 90 |
| Cc1c(C(=O)N2C[C@@H](C)O[C@@H](C)C2)cc(N(COC(=O)C(C)(C)C)S(=O)(=O)C(F)(F)F)c(C)c1C [Compound 331] | 0 | 90 | 0 | 20 | 0 | 20 | 0 | 50 | 0 | 90 | 70 | 80 | 0 | 0 | 0 | 0 | 0 | 0 | 70 | 80 |
| CCOC(=O)N(c1cc(C(=O)N2C[C@@H](C)O[C@@H](C)C2)c(C)c(C)c1C)S(=O)(=O)C(F)(F)F [Compound 332] | 50 | 80 | 0 | 30 | 10 | 30 | 0 | 90 | 50 | 90 | 80 | 80 | 0 | 0 | 0 | 10 | 10 | 40 | 60 | 80 |
| Cc1c(C(=O)N2CCCCC2)cc(NS(=O)(=O)C(F)(F)F)c(Cl)c1F [Compound 333] | 0 | 70 | 0 | 10 | 40 | 60 | 0 | 30 | 80 | 80 | 0 | 80 | 0 | 0 | 0 | 0 | 0 | 50 | 0 | 30 |
| COC1CCCN(C(=O)c2cc(NS(=O)(=O)C(F)(F)F)c(Cl)c(F)c2C)C1 (stereo not shown) [Compound 334] | 0 | 50 | 0 | 0 | 10 | 50 | 0 | 0 | 70 | 90 | 0 | 50 | 10 | 10 | 0 | 0 | 0 | 0 | 0 | 30 |
